14 compounds from PubChem BioAssay (NCI) can be followed below.

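Step 1: Grow cells in 96-well plates. Step 2: Expose to compound for 48 hours at 5 concentrations. Step 3: Interpolate endpoints linearly; if unreached, use highest concentration. Definition used: TGI = concentration required for complete inhibition of growth.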

Among the test systems are HCC-2998 colon; IGROV1 ovarian; ACHN renal; SNB-75 CNS; MDA-MB-231 breast; A498 renal; OVCAR-3 ovarian; OVCAR-8 ovarian; SK-MEL-2 melanoma; MOLT-4 leukemia.
Common to all, as to assay: DTP human tumour cell line panel, 48 h

The term TGI denotes the concentration at which net growth stops. Take `CC1=NN(c2nc(N)nc(/C(C#N)=C/c3cccn3-c3cc(Cl)cc(Cl)c3)n2)C(C)(C)C1`: the TGI is > 100 µM with HCC-2998 colon; > 100 µM in the experiment on IGROV1 ovarian; > 100 µM in the experiment on ACHN renal; 99.7 µM in the experiment on SNB-75 CNS; > 100 µM in the experiment on MDA-MB-231 breast; > 100 µM in the experiment on A498 renal. Besides, the TGI in the experiment with OVCAR-3 ovarian, with OVCAR-8 ovarian and in the experiment on SK-MEL-2 melanoma was > 100 µM throughout.

On to `Oc1c([Si](c2ccccc2)(c2ccccc2)c2ccccc2)cc2ccccc2c1-c1c(O)c([Si](c2ccccc2)(c2ccccc2)c2ccccc2)cc2ccccc12`, for which the TGI in the experiment with HCC-2998 colon, in the experiment on IGROV1 ovarian, in the experiment on MOLT-4 leukemia, in the experiment on ACHN renal, in the experiment on SNB-75 CNS and with MDA-MB-231 breast was > 100 µM throughout. Moreover, the TGI in the experiment on A498 renal, with OVCAR-8 ovarian and in the experiment with SK-MEL-2 melanoma was > 100 µM in each case.

Consider `COC(=O)c1c(O)ccc2c1c1c(n2Cc2cccc(C)c2)C(=O)c2ccccc2C1=O`, for which the TGI stood at 6.36 µM with HCC-2998 colon; 24.2 µM in the experiment on IGROV1 ovarian; 17.5 µM with MOLT-4 leukemia; 24.5 µM in the experiment on ACHN renal; 35.3 µM in the experiment on MDA-MB-231 breast; 33.9 µM with A498 renal. In addition, the results for the total growth inhibition concentration (TGI) in the experiment with OVCAR-3 ovarian, with OVCAR-8 ovarian and in the experiment with SK-MEL-2 melanoma were 22.8 µM, 21.9 µM and 27.4 µM, respectively.

`CCOC(=O)c1cc2c3c(c(C(C)=O)c(O)c2[nH]1)N(CC(C)CC)CC3` (configuration not stated): the TGI in the experiment with IGROV1 ovarian, in the experiment on MOLT-4 leukemia, in the experiment on ACHN renal, in the experiment with SNB-75 CNS, in the experiment on MDA-MB-231 breast and in the experiment with A498 renal was > 100 µM each time. Besides, the concentration for total growth inhibition (TGI) in the experiment with OVCAR-8 ovarian and in the experiment with SK-MEL-2 melanoma was > 100 µM in each case.

In the case of `COc1ccc(-c2c(C#N)c(S)n(NS(=O)(=O)c3ccc(C)cc3)c(=O)c2C#N)cc1`, the TGI with HCC-2998 colon was > 100 µM; in the experiment on IGROV1 ovarian it was 33.9 µM; in the experiment with MOLT-4 leukemia, 34.3 µM; in the experiment on ACHN renal, 41.3 µM; in the experiment with SNB-75 CNS it was > 100 µM; with MDA-MB-231 breast, 42.7 µM. Moreover, the concentration for total growth inhibition (TGI) in the experiment on A498 renal is > 100 µM; with OVCAR-8 ovarian it was 74.8 µM; in the experiment on SK-MEL-2 melanoma, 32.1 µM.

Regarding `COc1ccccc1NC(=O)CC(=O)N1N=C(C)C(N=Nc2ccc(C(=O)O)cc2)C1=O` (configuration not stated), the total growth inhibition concentration (TGI) with HCC-2998 colon is > 100 µM; in the experiment on IGROV1 ovarian, > 100 µM; in the experiment with ACHN renal it was > 100 µM; in the experiment with SNB-75 CNS, 6.06 µM; in the experiment on MDA-MB-231 breast it was > 100 µM; in the experiment on A498 renal it was > 100 µM. Further, the TGI in the experiment on OVCAR-3 ovarian, with OVCAR-8 ovarian and with SK-MEL-2 melanoma was > 100 µM each time.

`CC(=O)Oc1c2oc3ccc(Cl)cc3c(=O)c2c(O)c2ccsc12`: the TGI in the experiment on HCC-2998 colon, with ACHN renal, in the experiment on SNB-75 CNS, in the experiment with MDA-MB-231 breast, with A498 renal and in the experiment with OVCAR-3 ovarian was > 100 µM in each case. Moreover, the total growth inhibition concentration (TGI) in the experiment on OVCAR-8 ovarian and in the experiment with SK-MEL-2 melanoma was > 100 µM throughout.

Consider `Nc1ccccc1CC(O)C(=O)O` (configuration not stated), for which the TGI with HCC-2998 colon, in the experiment with MOLT-4 leukemia, with ACHN renal, in the experiment with SNB-75 CNS, in the experiment with MDA-MB-231 breast and with A498 renal was > 100 µM in each case. The TGI with OVCAR-3 ovarian and with OVCAR-8 ovarian was > 100 µM each time.

Regarding `O=C(Cn1c(C(=O)/C=C/c2cccs2)nc2ccccc21)c1ccc(Cl)cc1`, the total growth inhibition concentration (TGI) in the experiment on HCC-2998 colon is 29.8 µM; in the experiment on IGROV1 ovarian it was 77.7 µM; with ACHN renal it was > 100 µM; in the experiment on SNB-75 CNS, > 100 µM; in the experiment with MDA-MB-231 breast, 46 µM; with A498 renal it was 57.9 µM. Further, the TGI came to 57.3 µM with OVCAR-3 ovarian and 20.8 µM with SK-MEL-2 melanoma.

In the case of `COC(=O)C(CSSC[C@H](N/C(C)=C/C(C)=O)C(=O)OC)N/C(C)=C/C(C)=O` (some centres not stated), the TGI in the experiment on IGROV1 ovarian was > 100 µM; in the experiment on MOLT-4 leukemia, > 100 µM; in the experiment with ACHN renal it was 17.1 µM; with SNB-75 CNS, > 100 µM; in the experiment on MDA-MB-231 breast, > 100 µM; with A498 renal, > 100 µM. For the same compound, the TGI is 88.9 µM with OVCAR-3 ovarian, 0.0686 µM with OVCAR-8 ovarian and > 100 µM with SK-MEL-2 melanoma.

`O=c1[nH]nc(-c2ccccc2)n1/N=C/c1cccnc1`: the TGI with HCC-2998 colon, in the experiment on IGROV1 ovarian, in the experiment on MOLT-4 leukemia, in the experiment on ACHN renal, in the experiment on SNB-75 CNS and in the experiment with MDA-MB-231 breast was > 100 µM throughout. Besides, the TGI in the experiment with A498 renal, with OVCAR-3 ovarian and in the experiment on OVCAR-8 ovarian was > 100 µM each time.

Take `Cc1cn(Cc2cnnn2CC2OC(n3cc(C)c(=O)[nH]c3=O)CC2O)c(=O)[nH]c1=O` (configuration not stated): the total growth inhibition concentration (TGI) with HCC-2998 colon, in the experiment on IGROV1 ovarian, in the experiment with MOLT-4 leukemia, in the experiment on ACHN renal, in the experiment with MDA-MB-231 breast and in the experiment on A498 renal was > 100 µM throughout. Also, the TGI in the experiment with OVCAR-3 ovarian, in the experiment on OVCAR-8 ovarian and with SK-MEL-2 melanoma was > 100 µM in each case.

With `CC1(C)[C@H]2CC[C@]1(C)[C@H](OC(=O)NNC(=O)O[C@@H]1C[C@@H]3CC[C@@]1(C)C3(C)C)C2`, the TGI in the experiment on HCC-2998 colon stood at 27.7 µM; with IGROV1 ovarian it was 30.4 µM; in the experiment on MOLT-4 leukemia it was 27.3 µM; in the experiment with ACHN renal it was 36.7 µM; with SNB-75 CNS it was 28.1 µM; in the experiment with MDA-MB-231 breast, 27.6 µM. Moreover, the TGI with A498 renal was 33.8 µM; with OVCAR-3 ovarian it was 25.6 µM; in the experiment on SK-MEL-2 melanoma, 32.5 µM.

As for `C/C(Nc1ccc(F)cc1)=C1/CCOC1=O`, the TGI with HCC-2998 colon, with IGROV1 ovarian, in the experiment with MOLT-4 leukemia, with ACHN renal, with SNB-75 CNS and in the experiment on MDA-MB-231 breast was > 100 µM in each case. Moreover, the total growth inhibition concentration (TGI) with A498 renal, with OVCAR-3 ovarian and in the experiment with OVCAR-8 ovarian was > 100 µM throughout.
